Reference: PMC10671648, “Nucleation of α-Synuclein Amyloid Fibrils Induced by Cross-Interaction with β-Hairpin Peptides Derived from Immunoglobulin Light Chains” (International Journal of Molecular Sciences, 2023)

Legend:
αSyn(61–140) = assay: ThT aggregation assay of αSyn(61–140) under quiescent conditions; format: biochemical; conditions: concentrations up to 50 µM
Method: Figure 5 Modulation of aggregation of truncated αSyn variants by SMAhp (left) and LENhp (right) in ThT assay under quiescent conditions. Buffer, 30 mM Tris-HCl, pH 7.4, with indicated salt concentration. ThT time course and AFM images of (A,C) 25 µM αSyn(1–95) or (B,D) 25 µM αSyn(61–140) in the absence (gray) and presence of SMAhp (A,B) or LENhp (C,D). Frames around the AFM images correspond to the frames in the kinetics diagrams for indication of the sample; the same color coding for SMAhp and LENhp concentrations as in the kinetic diagrams was used for the AFM image frames.
αSyn(1–95) and αSyn(61–140) were expressed from codon-optimized gene sequences in the pT7–7 vector in Escherichia coli BL21DE3, without N-terminal acetylation. Expression and purification were performed as for full-length αSyn, with the difference that, for αSyn(1–95), the anion exchange chromatography step was replaced by cation exchange chromatography using a 5 mL HiTrap SP FF column (Cytiva, Marlborough, MA, USA) and 10 mM sodium acetate buffer, pH 5, with elution in a NaCl gradient from 0 to 500 mM.
Aggregation kinetics were monitored in Greiner 96-well half-area, clear bottom, low-binding plates via ThT fluorescence in a BMG CLARIOstar plate reader. […] Plates were covered with sealing tape, placed in the plate reader, heated to 37 °C, and ThT fluorescence was read using bottom optics.

Net charge at neutral pH = format: physicochemical
αSyn = αSyn (Homo sapiens, UniProt P37840); conditions: agitation conditions; ref [62]; cited from earlier work
β-wrapin AS10 = conditions: cited from earlier work

| Molecule | effect of spermine on ThT fluorescence of αSyn(61–140) (αSyn(61–140)) | net charge at neutral pH (Net charge at neutral pH) | effect on αSyn fibril formation under agitation (αSyn) | NMR pattern with AS10 (glycine region and downfield amide resonances) (β-wrapin AS10; 1H-15N HSQC NMR of 15N-AS10, ref [57]) | Kd (β-wrapin AS10; read-out: KD for AS10, ref [57]) [nM] | affinity for AS10 (β-wrapin AS10; ref [56,57,58]) |
| --- | --- | --- | --- | --- | --- | --- |
| NCCCNCCCCNCCCN [spermine] | did not lead to any increase in ThT fluorescence | +4 | promote αSyn fibril formation |  |  |  |
| IAPP: islet amyloid polypeptide, disease-related amyloid protein (KCNTATCATQRLANFLVHSSNNFGAILSSTNVGSNTY; Islet amyloid polypeptide; UniProt P10997 34-70, looked up) |  |  |  | The same pattern has been observed before | 910 | sub-micromolar affinity |
